Twelve molecules from PubChem BioAssay (NCI) can be followed below.

Among the test systems are SW-620 colon; ACHN renal; HCT-116 colon; SN12C renal; UACC-62 melanoma; NCI/ADR-RES ovarian; SR leukemia; OVCAR-4 ovarian; SNB-75 CNS; DU-145 prostate; UACC-257 melanoma; SK-OV-3 ovarian.
Holding throughout (assay): NCI anticancer screen, dose series, 48 h

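Five concentrations, 48 hours, 96-well plates. TGI: concentration producing complete growth inhibition.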

Take `Oc1c(Br)cc(/C=C/c2ccnc(/C=C/c3cc(Br)c(O)c(Br)c3)c2)cc1Br`: the TGI was greater than 100 µM in the assay on SW-620 colon; greater than 100 µM in the assay with ACHN renal; 30.7 µM with HCT-116 colon; greater than 100 µM in the assay with SN12C renal; 73.8 µM in the assay with UACC-62 melanoma; 92.6 µM with NCI/ADR-RES ovarian. The TGI in the assay with SR leukemia was 45.9 µM; with OVCAR-4 ovarian, 87.2 µM; in the assay with SNB-75 CNS, 58.5 µM; with DU-145 prostate, 39.1 µM; with UACC-257 melanoma, 66.7 µM; in the assay with SK-OV-3 ovarian, greater than 100 µM.

As for `O=C(O)c1ccccc1C(=O)NCC1S(=O)(=O)OCCOS1(=O)=O`, the TGI in the assay with SW-620 colon, in the assay on ACHN renal, with HCT-116 colon, in the assay on SN12C renal, in the assay on UACC-62 melanoma and in the assay on NCI/ADR-RES ovarian was greater than 100 µM in each case. Also, the TGI with SR leukemia, in the assay on OVCAR-4 ovarian, in the assay with SNB-75 CNS, with DU-145 prostate, in the assay with UACC-257 melanoma and in the assay on SK-OV-3 ovarian was greater than 100 µM each time.

Take `Cc1ccc2c(c1)C(=C(C#N)C#N)CCCS2(=O)=O`: the TGI in the assay with SW-620 colon, with ACHN renal, with HCT-116 colon, with SN12C renal, in the assay with UACC-62 melanoma and in the assay with NCI/ADR-RES ovarian was greater than 100 µM in each case. Also, the TGI in the assay on SR leukemia, with OVCAR-4 ovarian, with SNB-75 CNS, in the assay with DU-145 prostate, in the assay on UACC-257 melanoma and with SK-OV-3 ovarian was greater than 100 µM throughout.

Turning to `Cc1ccc(O)c(C(c2cccc(C(c3cc(C)ccc3O)c3cc(C)ccc3O)c2)c2cc(C)ccc2O)c1`, the TGI with SW-620 colon is 3.2 µM; in the assay with ACHN renal, 3.13 µM; with HCT-116 colon it was 3.34 µM; in the assay with SN12C renal, 3.4 µM; with UACC-62 melanoma, 3.51 µM; with NCI/ADR-RES ovarian, 7.66 µM. Besides, the TGI stood at 7.55 µM with SR leukemia; 3.73 µM in the assay on OVCAR-4 ovarian; 3.54 µM in the assay on SNB-75 CNS; 2.84 µM in the assay on DU-145 prostate; 3.86 µM in the assay with UACC-257 melanoma; 3.42 µM in the assay on SK-OV-3 ovarian.

For the molecule `COC(=O)CCC(=O)c1ccc2c(c1)CCC2`, the TGI in the assay with SW-620 colon, with ACHN renal, with HCT-116 colon, with NCI/ADR-RES ovarian, in the assay with SR leukemia and in the assay on OVCAR-4 ovarian was greater than 100 µM each time. In addition, the TGI in the assay with SNB-75 CNS, in the assay on DU-145 prostate, in the assay on UACC-257 melanoma and with SK-OV-3 ovarian was greater than 100 µM throughout.

Turning to `COc1ccc(S(=O)(=O)N2C(=O)CCC2C(=O)NC(N)=O)cc1` (stereo unspecified), the TGI with SW-620 colon, in the assay on ACHN renal, in the assay with HCT-116 colon, with SN12C renal, in the assay with UACC-62 melanoma and in the assay on NCI/ADR-RES ovarian was greater than 100 µM each time. For the same molecule, the TGI was greater than 100 µM with SR leukemia; greater than 100 µM in the assay with OVCAR-4 ovarian; 1.55 µM in the assay on SNB-75 CNS; greater than 100 µM with DU-145 prostate; greater than 100 µM in the assay with UACC-257 melanoma; greater than 100 µM in the assay on SK-OV-3 ovarian.

Regarding `Nc1nc(Cl)cc(NCC2(O)CCC2)n1`, the TGI with SW-620 colon, with ACHN renal, with HCT-116 colon, in the assay on SN12C renal, in the assay with UACC-62 melanoma and in the assay with NCI/ADR-RES ovarian was greater than 100 µM throughout. The TGI in the assay on SR leukemia, in the assay on OVCAR-4 ovarian, with SNB-75 CNS, with DU-145 prostate, in the assay with UACC-257 melanoma and with SK-OV-3 ovarian was greater than 100 µM throughout.

As to `CSc1ncnc2c1ncn2CCC(=O)O`, the TGI in the assay with SW-620 colon, with ACHN renal, in the assay with HCT-116 colon, with SN12C renal, in the assay on UACC-62 melanoma and in the assay on NCI/ADR-RES ovarian was greater than 100 µM in each case. Further, the TGI with SR leukemia, in the assay on OVCAR-4 ovarian, in the assay on SNB-75 CNS, in the assay with DU-145 prostate, in the assay with UACC-257 melanoma and with SK-OV-3 ovarian was greater than 100 µM in each case.

As for `CNC(=O)C(C)NC(=O)C(Cc1ccccc1)NC(=O)c1ccccc1` (stereo unspecified), the TGI with SW-620 colon, in the assay on ACHN renal, with HCT-116 colon, in the assay with SN12C renal, in the assay with UACC-62 melanoma and in the assay on NCI/ADR-RES ovarian was greater than 100 µM in each case. Besides, the TGI with SR leukemia, with OVCAR-4 ovarian, with SNB-75 CNS, in the assay on DU-145 prostate, in the assay with UACC-257 melanoma and in the assay on SK-OV-3 ovarian was greater than 100 µM each time.

Regarding `COc1ccc(N=c2oc3ccccc3cc2C(N)=O)cc1`, the TGI in the assay on SW-620 colon was greater than 100 µM; in the assay with ACHN renal, 37.1 µM; in the assay with HCT-116 colon, greater than 100 µM; with SN12C renal, greater than 100 µM; with UACC-62 melanoma it was greater than 100 µM; with NCI/ADR-RES ovarian, greater than 100 µM. Besides, the TGI is greater than 100 µM in the assay with SR leukemia; greater than 100 µM with SNB-75 CNS; greater than 100 µM with DU-145 prostate; greater than 100 µM in the assay with UACC-257 melanoma; 47.7 µM in the assay with SK-OV-3 ovarian.

`COC(=O)c1c([N+](=O)[O-])ncn1[C@H]1OC[C@@H](OC(C)=O)[C@@H](OC(C)=O)[C@@H]1OC(C)=O`: the TGI with SW-620 colon, in the assay on ACHN renal, with HCT-116 colon, with SN12C renal, in the assay on UACC-62 melanoma and with NCI/ADR-RES ovarian was greater than 100 µM in each case. The TGI with SR leukemia, in the assay on OVCAR-4 ovarian, in the assay on SNB-75 CNS, in the assay on DU-145 prostate, in the assay on UACC-257 melanoma and in the assay on SK-OV-3 ovarian was greater than 100 µM each time.

On to `COc1ccc(C2SC(N)=Nc3c2c(C)nn3C(=O)c2ccccc2O)cc1OC` (stereo unspecified), for which the TGI is greater than 10 µM in the assay with SW-620 colon; greater than 10 µM in the assay with ACHN renal; 7.47 µM with HCT-116 colon; greater than 10 µM in the assay with SN12C renal; 7.93 µM with UACC-62 melanoma; greater than 10 µM in the assay with NCI/ADR-RES ovarian. Besides, the TGI in the assay with SR leukemia is greater than 10 µM; in the assay on OVCAR-4 ovarian it was greater than 10 µM; with SNB-75 CNS, 9.32 µM; in the assay on DU-145 prostate it was greater than 10 µM; in the assay with UACC-257 melanoma, greater than 10 µM; in the assay on SK-OV-3 ovarian it was greater than 10 µM.
